Source: BindingDB's records for PubMed 10688601 (Virginia Commonwealth University, 2000)

Legend:
Cannabinoid receptor 2 [1] = target: Cannabinoid receptor 2 (Mus musculus, UniProt P47936)
Cannabinoid receptor 2 [2] = target: T1, Cannabinoid receptor 2 (Rattus norvegicus, UniProt Q9QZN9)
T1 sequence (Q9QZN9 whole entry): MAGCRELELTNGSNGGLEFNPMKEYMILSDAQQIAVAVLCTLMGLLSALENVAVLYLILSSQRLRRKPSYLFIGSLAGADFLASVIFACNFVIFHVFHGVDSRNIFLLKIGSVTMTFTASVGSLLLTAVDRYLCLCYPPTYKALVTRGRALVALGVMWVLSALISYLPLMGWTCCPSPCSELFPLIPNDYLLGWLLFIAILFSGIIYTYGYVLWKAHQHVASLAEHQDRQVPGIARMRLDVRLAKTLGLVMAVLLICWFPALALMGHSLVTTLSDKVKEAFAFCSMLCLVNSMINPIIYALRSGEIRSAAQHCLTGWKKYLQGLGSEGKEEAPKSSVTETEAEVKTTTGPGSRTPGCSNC

Cannabinoid receptor 2 [3] = target: Cannabinoid receptor 2 (Homo sapiens, UniProt P34972)
Cannabinoid receptor 2 (Homo sapiens, UniProt P34972), sequence (P34972 whole entry): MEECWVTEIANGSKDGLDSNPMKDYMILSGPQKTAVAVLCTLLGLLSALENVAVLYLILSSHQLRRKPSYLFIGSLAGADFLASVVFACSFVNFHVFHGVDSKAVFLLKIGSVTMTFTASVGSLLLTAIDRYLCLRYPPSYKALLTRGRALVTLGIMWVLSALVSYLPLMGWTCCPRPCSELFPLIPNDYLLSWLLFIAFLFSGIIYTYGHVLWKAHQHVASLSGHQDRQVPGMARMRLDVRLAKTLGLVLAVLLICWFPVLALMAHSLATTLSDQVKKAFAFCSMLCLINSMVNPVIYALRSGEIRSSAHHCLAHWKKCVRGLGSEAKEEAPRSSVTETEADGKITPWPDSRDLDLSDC

Cannabinoid receptor 2 (Mus musculus, UniProt P47936), sequence (P47936 whole entry): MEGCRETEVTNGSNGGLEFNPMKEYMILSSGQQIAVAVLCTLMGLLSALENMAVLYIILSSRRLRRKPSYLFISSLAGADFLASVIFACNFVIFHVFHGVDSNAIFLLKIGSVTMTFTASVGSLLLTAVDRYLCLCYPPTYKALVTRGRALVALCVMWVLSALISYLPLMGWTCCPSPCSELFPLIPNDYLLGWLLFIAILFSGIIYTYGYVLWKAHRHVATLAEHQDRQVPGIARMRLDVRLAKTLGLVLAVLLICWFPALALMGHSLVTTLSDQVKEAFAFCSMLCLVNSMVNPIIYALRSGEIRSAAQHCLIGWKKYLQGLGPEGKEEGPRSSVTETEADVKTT

SMILES	Ki (Cannabinoid receptor 2 [1])	Ki (Cannabinoid receptor 2 [2])	Ki (Cannabinoid receptor 2 [3])
CCCCC/C=C\C/C=C\C/C=C\C/C=C\CCCC(=O)NCCO [Arachidonoyl ethanolamide]	1480 nM	–	–
CCCCCCC(C)(C)c1ccc([C@H]2C[C@@H](O)CC[C@@H]2CCCO)c(O)c1 [CP-56667 [(+)-AC],XV]	0.73 nM	0.64 nM	–
CCCn1c(C)c(C(=O)c2cccc3ccccc23)c2ccccc21	431 nM	269 nM	–
CCCCCc1cc(O)c2c(c1)OC(C)(C)[C@@H]1CCC(C)=CC21 (stereo not given in full) [Tetrahydrocannabinol]	27.3 nM	–	–
Cc1c(C(=O)c2cccc3ccccc23)c2cccc3c2n1[C@H](CN1CCOCC1)CO3 [WIN55212-2]	9.46 nM	–	–
CCCCCCC(C)(C)c1ccc2c(c1)OC(C)(C)[C@@H]1CC=C(CO)C[C@@H]21 [JWH-051]	0.72 nM	3.16 nM	0.33 nM
